In patent US20210308101A1, “METHODS OF TREATING FIBROMYALGIA” (Aptinyx Inc., priority 2019, published 2021):

Test system: subjects with fibromyalgia
Test: Brief Pain Inventory - Short Form (BPI-SF)
Assay type: in vivo, human
Conditions: not statistically significant
Description: As used herein, “Brief Pain Inventory” (BPI)—Short Form is a brief, simple patient-completed numeric rating scale that assesses the severity of pain (Severity scale), its impact on daily functioning (Interference scale), and other aspects of pain (e.g., location of pain, relief from medications). A short form version of the BPI, including the 4-item pain Severity scale (Worst Pain, Least Pain, Average Pain, and Pain Now) and the 7-item pain Interference scale (General Activity, Mood, Walking Ability, Normal Work, Relations with Other People, Sleep, Enjoyment of Life) were the main BPI-Short Form analyses. […] If at least 3 of the 4 Severity items have a reported score, then the Pain Severity Index was the calculated mean. Otherwise, the Pain Severity Index was set to missing. […] Otherwise, the Pain Interference Index was set to missing. […] The Pain Severity Index and the Pain Interference Index were referred to as composite scores.
There may be dates in which worst pain in the last 24 hours has scores that are less than the least pain in the last 24 hours and/or right now pain scores. Also, the least pain in the last 24 hours scores may be greater than the worst pain in the last 24 hours and/or right now pain scores. This may be due to the collection of the data that cannot be changed due to the subject's confusion of the three scores. The Pain Severity Index score equally distributes all these three scores and the average pain score. Therefore, the Pain Severity Index score is not impacted by any of these scores being mixed up. As a result, the scores were analyzed based on the values collected.
The 2 composite scores took on values ranging from 0 to 10 and were rounded off by one number after the decimal point. A total pain score for BPI-Short Form was not calculated. The BPI-Short Form assessment was collected and analyzed at visits Screening, Day 1, Week 2, Week 4, Week 6, and Follow-up (Week 7). The observed composite scores, changes from baseline, and changes from treatment periods were summarized using descriptive statistics. Additionally, the treatment group comparisons were analyzed using the paired t-test and nonparametric Wilcoxon signed-rank test. All BPI-Short Form data collected and the calculated composite scores at each visit were presented in a subject listing. […] Have you had pain other than these everyday kinds of pain today?” is a categorical response (yes/no). […] This question was included in the descriptive statistics, but was not analyzed using any paired t-test and nonparametric Wilcoxon signed-rank test comparisons. • BPI-Short Form question 2, “On the diagram, shade in the areas where you feel pain. […]

[1] = Week 2 (placebo) to Week 4 (NYX-2925 20 mg)
[2] = Week 2 (placebo) to Week 6 (NYX-2925 200 mg)

CC(C)C(=O)N1CCC[C@]12CN([C@H](C(N)=O)[C@@H](C)O)C2=O [NYX-2925, (2S, 3R)-3-hydroxy-2-((R)-5-isobutyryl-1-oxo-2,5-diazaspiro[3.4]octan-2-yl)butanamide]
BPI-SF Pain Interference Index score, mean change [1]: −0.04 | BPI-SF Pain Severity Index score, mean change [1]: −0.22 | BPI-SF Pain Interference Index score, mean change [2]: −0.66 | BPI-SF Pain Severity Index score, mean change [2]: −0.27
